From patent publication EP1368050B1, “VIRUS DERIVED ANTIMICROBIAL PEPTIDES” (priority 2001, dated 2008)
Converted amounts (≈) assume the structure as drawn. Read-outs that look alike come from different tables or passages of the source. Residues, ends and D or L forms follow the SMILES beside them. No end group written: not given here.

How the values were obtained:
Settings in all cases: 10 mM phosphate buffer, 99.9% killing
Psuedomonas aeruginosa = assay: Bacterial lysis assay (broth dilution), minimal bactericidal concentration; assay type: cell-based, Pseudomonas aeruginosa
Description: (§1) The assays for growth inhibition of a microbial target can be used to derive a minimum bactericidal concentration (MBC) value for the peptide, i.e., the concentration of peptide required to kill 99.9% of the microbial sample being tested. This value is well known to those in the art as representative of the effectiveness of a particular antimicrobial agent (e.g., an antibiotic) against a particular organism or group of organisms. In assays to detect the MBC of a peptide, growth inhibition of a bacterial population also can be measured with reference to the number of colony forming units (cfu) after exposure to a peptide relative to a control experiment without a peptide.
(§2) Bacterial lysis assay. Bacterial lysis assays were conducted in a manner similar to that described previously (Lehrer, R. I., M. E. Selsted, D. Szklarek, and F. J. 1983. Infect. Immun. 42: 10-4, 1983; Miller, M. A., R. F. Garry, J. M. Jaynes, and R. C. Montelaro, AIDS Res Hum Retroviruses 7: 511-519, 1991). Bacterial suspensions were cultured in Luria-Bertani Broth to mid-log growth phase and washed by two cycles of centrifugation and suspension in 10 mM phosphate buffer. The Abs600 of the suspension was adjusted with 10 mM phosphate buffer such that, upon dilution, 5-10x10^5 cfu/mL would be treated in the assay. Bacteria were incubated for 1h with two-fold dilutions of peptides (100µM to 100 nM) in 96-well plates using 10 mM phosphate buffer, pH 7.2, as a diluent. Ten-fold dilutions of bacteria were performed to 1:1000; a 100µl aliquot from each condition was spread on the surface of tryptic soy agar plates (Difco, Detroit, Mich.) which were incubated overnight. Colonies of surviving bacteria (cfu, colony-forming units) were counted and compared to untreated controls to determine the amount of peptide-induced killing under each condition. Log killing is defined as the log of the ratio of cfu present before and after treatment with peptide. The minimal bactericidal concentration, MBC, is the peptide concentration at which 99.9% (three log) killing is achieved (Pearson et al., Antimicrob. Agents Chemother. 18: 699-708, 1980).
(§3) Results. Representative gram positive (S. aureus) and gram negative (P. aeruginosa) clinical isolates were used as the index bacteria to survey the peptides described in this invention.
(§4) A limitation of many host-derived antimicrobial peptides is their decreased activity at physiologic (150 mM) NaCl concentration. See Friedrich et al., Antimicrobial Agents and Chemotherapy 43:1542-1548. The activity of eLLPs and LBUs of this invention were compared to an expanded list of clinical bacterial isolates. These are summarized in Table 2 by comparing their MBCs in phosphate buffer alone (low salt) and phosphate buffer containing 150 mM NaCl (physiologic conditions). Inspection of this table would lead one skilled in the art to conclude that the activity of eLLPs and LBUs compare favorably to the host derived antimicrobial peptides as it relates to the spectrum and potency of antimicrobial activity.

Staphylococcus aureus = assay: as above; assay type: cell-based
Description: as §1, §2, §3, §4

[1] = tested on: Methicillin Resistant S. aureus; assay type: cell-based
Description: as §1, §2, §4

Molecule: CC(C)[C@H](NC(=O)[C@H](CCCNC(=N)N)NC(=O)[C@H](CCCNC(=N)N)NC(=O)[C@@H](NC(=O)[C@@H](NC(=O)[C@H](CCCNC(=N)N)NC(=O)[C@@H](N)CCCNC(=N)N)C(C)C)C(C)C)C(=O)N[C@@H](CCCNC(=N)N)C(=O)N[C@@H](CCCNC(=N)N)C(=O)N[C@H](C(=O)N[C@H](C(=O)N[C@@H](CCCNC(=N)N)C(=O)N[C@@H](CCCNC(=N)N)C(=O)N[C@H](C(=O)N[C@H](C(=O)N[C@@H](CCCNC(=N)N)C(=O)N[C@H](C(=O)N[C@H](C(=O)N[C@@H](CCCNC(=N)N)C(=O)N[C@@H](CCCNC(=N)N)C(=O)N[C@H](C(=O)N[C@H](C(=O)N[C@@H](CCCNC(=N)N)C(=O)N[C@@H](CCCNC(=N)N)C(=O)O)C(C)C)C(C)C)C(C)C)C(C)C)C(C)C)C(C)C)C(C)C)C(C)C [LBU-2, RRVVRRVRRV VRRVV RVVRR VVRR] (H-RRVVRRVRRVVRRVVRVVRRVVRR-OH)
- MBC (Psuedomonas aeruginosa; 0 mM NaCl): 1.5 µM (≈ 4.71 µg/mL)
- MBC (Psuedomonas aeruginosa; 150 mM NaCl): 0.8 µM (≈ 2.51 µg/mL)
- MBC (Staphylococcus aureus; 0 mM NaCl): 1500 nM (≈ 4.71 µg/mL)
- MBC (Staphylococcus aureus; 150 mM NaCl): >100,000 nanomolar

Molecule: CC(C)[C@H](N)C(=O)N[C@@H](CCCNC(=N)N)C(=O)N[C@@H](CCCNC(=N)N)C(=O)N[C@H](C(=O)N[C@H](C(=O)N[C@@H](CCCNC(=N)N)C(=O)N[C@@H](CCCNC(=N)N)C(=O)N[C@H](C(=O)N[C@H](C(=O)N[C@@H](CCCNC(=N)N)C(=O)N[C@H](C(=O)N[C@H](C(=O)N[C@@H](CCCNC(=N)N)C(=O)N[C@@H](CCCNC(=N)N)C(=O)N[C@H](C(=O)N[C@H](C(=O)N[C@@H](CCCNC(=N)N)C(=O)N[C@@H](CCCNC(=N)N)C(=O)N[C@H](C(=O)N[C@@H](CCCNC(=N)N)C(=O)N[C@@H](CCCNC(=N)N)C(=O)N[C@H](C(=O)N[C@H](C(=O)N[C@@H](CCCNC(=N)N)C(=O)N[C@@H](CCCNC(=N)N)C(=O)N[C@H](C(=O)N[C@H](C(=O)N[C@@H](CCCNC(=N)N)C(=O)N[C@H](C(=O)N[C@H](C(=O)N[C@@H](CCCNC(=N)N)C(=O)N[C@@H](CCCNC(=N)N)C(=O)N[C@H](C(=O)N[C@H](C(=O)N[C@@H](CCCNC(=N)N)C(=O)N[C@@H](CCCNC(=N)N)C(=O)O)C(C)C)C(C)C)C(C)C)C(C)C)C(C)C)C(C)C)C(C)C)C(C)C)C(C)C)C(C)C)C(C)C)C(C)C)C(C)C)C(C)C)C(C)C)C(C)C)C(C)C [LBU-3, VRRVVRRVVRVVRRVVRRVRRVVRRVVRVV RRVVRR] (H-VRRVVRRVVRVVRRVVRRVRRVVRRVVRVVRRVVRR-OH)
- MBC (Psuedomonas aeruginosa; 0 mM NaCl): 1.5 µM (≈ 6.92 µg/mL)
- MBC (Psuedomonas aeruginosa; 150 mM NaCl): 0.8 µM (≈ 3.69 µg/mL)
- MBC (Staphylococcus aureus; 0 mM NaCl): 1500 nM (≈ 6.92 µg/mL)
- MBC (Staphylococcus aureus; 150 mM NaCl): 1500 nM (≈ 6.92 µg/mL)

Molecule: CC(C)[C@H](NC(=O)[C@H](Cc1c[nH]c2ccccc12)NC(=O)[C@H](CCCNC(=N)N)NC(=O)[C@H](CCCNC(=N)N)NC(=O)[C@@H](NC(=O)[C@@H](NC(=O)[C@H](CCCNC(=N)N)NC(=O)[C@@H](NC(=O)[C@@H](NC(=O)[C@@H](N)CCCNC(=N)N)C(C)C)C(C)C)C(C)C)C(C)C)C(=O)N[C@@H](CCCNC(=N)N)C(=O)N[C@@H](CCCNC(=N)N)C(=O)O [WLBU-1, RVVRV VRRWV RR] (H-RVVRVVRRWVRR-OH)
- MBC ([1]; 0 mM NaCl): 50,000 nanomolar
- MBC ([1]; 150 mM NaCl): 50,000 nanomolar
- MBC (Psuedomonas aeruginosa; 0 mM NaCl): 0.4 µM (≈ 0.655 µg/mL)
- MBC (Psuedomonas aeruginosa; 150 mM NaCl): 2.5 µM (≈ 4.09 µg/mL)
- MBC (Staphylococcus aureus; 0 mM NaCl): 30.000 nM (≈ 0.0491 µg/mL)
- MBC (Staphylococcus aureus; 150 mM NaCl): 10.000 nM (≈ 0.0164 µg/mL)

Molecule: CC(C)[C@H](NC(=O)[C@H](Cc1c[nH]c2ccccc12)NC(=O)[C@H](CCCNC(=N)N)NC(=O)[C@H](CCCNC(=N)N)NC(=O)[C@@H](NC(=O)[C@@H](NC(=O)[C@H](CCCNC(=N)N)NC(=O)[C@@H](NC(=O)[C@@H](NC(=O)[C@H](CCCNC(=N)N)NC(=O)[C@H](CCCNC(=N)N)NC(=O)[C@H](Cc1c[nH]c2ccccc12)NC(=O)[C@@H](NC(=O)[C@H](CCCNC(=N)N)NC(=O)[C@H](CCCNC(=N)N)NC(=O)[C@@H](NC(=O)[C@H](CCCNC(=N)N)NC(=O)[C@H](CCCNC(=N)N)NC(=O)[C@@H](NC(=O)[C@H](Cc1c[nH]c2ccccc12)NC(=O)[C@H](CCCNC(=N)N)NC(=O)[C@@H](N)CCCNC(=N)N)C(C)C)C(C)C)C(C)C)C(C)C)C(C)C)C(C)C)C(C)C)C(=O)N[C@@H](CCCNC(=N)N)C(=O)N[C@@H](CCCNC(=N)N)C(=O)O [WLBU-2, RRWVRRVRRV WRRVV RVVRR WVRR] (H-RRWVRRVRRVWRRVVRVVRRWVRR-OH)
- MBC ([1]; 0 mM NaCl): 200 nM (≈ 0.68 µg/mL)
- MBC ([1]; 150 mM NaCl): 100 nM (≈ 0.34 µg/mL)
- MBC (Psuedomonas aeruginosa; 0 mM NaCl): 0.2 µM (≈ 0.68 µg/mL)
- MBC (Psuedomonas aeruginosa; 150 mM NaCl): 0.1 µM (≈ 0.34 µg/mL)
- MBC (Staphylococcus aureus; 0 mM NaCl): 1000 nM (≈ 3.4 µg/mL)
- MBC (Staphylococcus aureus; 150 mM NaCl): 600 nM (≈ 2.04 µg/mL)

Molecule: CC(C)[C@H](N)C(=O)N[C@@H](CCCNC(=N)N)C(=O)N[C@@H](CCCNC(=N)N)C(=O)N[C@H](C(=O)N[C@@H](Cc1c[nH]c2ccccc12)C(=O)N[C@@H](CCCNC(=N)N)C(=O)N[C@@H](CCCNC(=N)N)C(=O)N[C@H](C(=O)N[C@H](C(=O)N[C@@H](CCCNC(=N)N)C(=O)N[C@H](C(=O)N[C@H](C(=O)N[C@@H](CCCNC(=N)N)C(=O)N[C@@H](CCCNC(=N)N)C(=O)N[C@@H](Cc1c[nH]c2ccccc12)C(=O)N[C@H](C(=O)N[C@@H](CCCNC(=N)N)C(=O)N[C@@H](CCCNC(=N)N)C(=O)N[C@H](C(=O)N[C@@H](CCCNC(=N)N)C(=O)N[C@@H](CCCNC(=N)N)C(=O)N[C@H](C(=O)N[C@@H](Cc1c[nH]c2ccccc12)C(=O)N[C@@H](CCCNC(=N)N)C(=O)N[C@@H](CCCNC(=N)N)C(=O)N[C@H](C(=O)N[C@H](C(=O)N[C@@H](CCCNC(=N)N)C(=O)N[C@H](C(=O)N[C@H](C(=O)N[C@@H](CCCNC(=N)N)C(=O)N[C@@H](CCCNC(=N)N)C(=O)N[C@@H](Cc1c[nH]c2ccccc12)C(=O)N[C@H](C(=O)N[C@@H](CCCNC(=N)N)C(=O)N[C@@H](CCCNC(=N)N)C(=O)O)C(C)C)C(C)C)C(C)C)C(C)C)C(C)C)C(C)C)C(C)C)C(C)C)C(C)C)C(C)C)C(C)C)C(C)C)C(C)C [WLBU-3, VRRVWRRVVRVVRRWVRRVRRVWRRVVRVVRRWVRR] (H-VRRVWRRVVRVVRRWVRRVRRVWRRVVRVVRRWVRR-OH)
- MBC ([1]; 0 mM NaCl): 400 nM (≈ 1.98 µg/mL)
- MBC ([1]; 150 mM NaCl): 100 nM (≈ 0.496 µg/mL)
- MBC (Psuedomonas aeruginosa; 0 mM NaCl): 1.5 µM (≈ 7.44 µg/mL)
- MBC (Psuedomonas aeruginosa; 150 mM NaCl): 0.8 µM (≈ 3.97 µg/mL)
- MBC (Staphylococcus aureus; 0 mM NaCl): 3,000 nanomolar
- MBC (Staphylococcus aureus; 150 mM NaCl): 600 nM (≈ 2.98 µg/mL)

Molecule: RRVVRRVRRVVRRVVRVVRRVVRRVRRVVRRVVRVVRRVVRR [LBU-3.5, RRVVRRVRRVVRRVVRVVRRVVRRVRRVVRRVVRVVRRVVRR]
- MBC ([1]; 0 mM NaCl): 1500 nM
- MBC ([1]; 150 mM NaCl): 200 nM
- MBC (Psuedomonas aeruginosa; 0 mM NaCl): 0.4 µM
- MBC (Psuedomonas aeruginosa; 150 mM NaCl): 0.4 µM
- MBC (Staphylococcus aureus; 0 mM NaCl): 1000 nM
- MBC (Staphylococcus aureus; 150 mM NaCl): 600 nM

Molecule: RVVRVVRRVVRRVRRVVRRVVRVVRRVVRRVRRVVRRVVRVVRRVVRR [LBU-4, RVVRVVRRVVRRVRRVVRRVVRVVRRVVRRVRRVVRRVVRVVRRVVRR]
- MBC (Psuedomonas aeruginosa; 0 mM NaCl): 0.8 µM
- MBC (Psuedomonas aeruginosa; 150 mM NaCl): 0.4 µM
- MBC (Staphylococcus aureus; 0 mM NaCl): 800 nM
- MBC (Staphylococcus aureus; 150 mM NaCl): 800 nM

Molecule: RVVRVVRRWVRRVRRVWRRVVRVVRRWVRRVRRVWRRVVRVVRRWRVV [WLBU-4, RVVRVVRRWVRRVRRVWRRVVRVVRRRVVRVVRRWRVV RWVRR VRRVW]
- MBC ([1]; 0 mM NaCl): 1500 nM
- MBC ([1]; 150 mM NaCl): 200 nM
- MBC (Psuedomonas aeruginosa; 0 mM NaCl): 1.5 µM
- MBC (Psuedomonas aeruginosa; 150 mM NaCl): 0.4 µM
- MBC (Staphylococcus aureus; 0 mM NaCl): 3,000 nanomolar
- MBC (Staphylococcus aureus; 150 mM NaCl): 600 nM
